One block for each compound: values may come before it. Square brackets hold non-standard residues; d marks the D form. Peptide text beside a SMILES is read from it. * marks the point of attachment. X3 = CC(C)C[C@@H](CN1CCC[N+]2=C1CCC2)N*; X4 = CC(C)C[C@@H](C[N+]1=C2CCCN2CCC1)N*; Pip = O=C(O)[C@@H]1CCCCN1; Iva = CC[C@](C)(N)C(=O)O; Aib = CC(C)(N)C(=O)O; βAla = NCCC(=O)O
What was measured:
MCF7 = experiment: Antiproliferative activity against human MCF7 cells assessed as reduction in cell viability incubated for 48 hrs by MTT assay; assay type: functional, cell-based; conditions: MCF7, 48 h
SMMC-7721 = experiment: Antiproliferative activity against human SMMC-7721 cells assessed as reduction in cell viability incubated for 48 hrs by MTT assay; assay type: functional, cell-based; conditions: SMMC-7721, 48 h
SW480 = experiment: Antiproliferative activity against human SW480 cells assessed as reduction in cell viability incubated for 48 hrs by MTT assay; assay type: functional, cell-based; conditions: SW480, 48 h
HL-60 = experiment: Antiproliferative activity against human HL-60 cells assessed as reduction in cell viability incubated for 48 hrs by MTT assay; assay type: functional, cell-based; conditions: HL-60, 48 h
A549 = experiment: Antiproliferative activity against human A549 cells assessed as reduction in cell viability incubated for 48 hrs by MTT assay; assay type: functional, cell-based; conditions: A549, 48 h
[1] = Antiproliferative activity against human Keratinocyte assessed as inhibition of cell proliferation incubated for 2 days by Beckman Coulter analysis; assay type: functional, cell-based; conditions: 48 h
[2] = Antiproliferative activity against human U87G cells assessed as reduction in cell viability incubated for 72 hrs by MTT assay; assay type: functional, cell-based
HCT-116 [3] = experiment: Antiproliferative activity against human HCT-116 cells assessed as reduction in cell viability incubated for 72 hrs by MTT assay; assay type: functional, cell-based; conditions: HCT-116, 72 h
Bos taurus = species: Bos taurus; experiment: Inhibition of bovine F0F1-ATPase at 50 uM
NCI-H292 = experiment: Anticancer activity against human NCI-H292 cells assessed as reduction in cell proliferation incubated for 48 hrs by Calcein AM and Pluronic F-127 staining based fluorescence plate reader analysis; assay type: functional; conditions: NCI-H292, 48 h
SNU-398 = experiment: Anticancer activity against human SNU-398 cells expressing high level of SALL4 assessed as reduction in cell viability incubated for 72 hrs by CellTiter-Glo assay; assay type: functional, cell-based; conditions: SNU-398, 72 h
MDA-MB-231 = experiment: Antiproliferative activity against human MDA-MB-231 cells assessed as reduction in cell viability incubated for 48 hrs by MTT assay; assay type: functional, cell-based; conditions: MDA-MB-231, 48 h
HCT-116 [4] = experiment: Antitumor activity against human HCT-116 cells assessed as reduction in cell viability incubated for 72 hrs by MTT assay; assay type: functional, cell-based; conditions: HCT-116, 72 h
K562 = experiment: Antitumor activity against human K562 cells assessed as reduction in cell viability incubated for 72 hrs by MTT assay; assay type: functional, cell-based; conditions: K562, 72 h

IC50 (MCF7): > 40 µM
IC50 (SMMC-7721): > 40 µM
IC50 (SW480): > 40 µM
IC50 (HL-60): > 40 µM
IC50 (A549): > 40 µM
Structure (SMILES): CC[C@H]1O[C@@]2(C)[C@H](OC(C)=O)[C@@]1(C)O[C@@H](CC(O)/C=C/C=C/c1oc(=O)cc(OC)c1C)[C@@H]2O (some centres undefined)

Structure (SMILES): CN1C(=O)C(Cc2ccc3ccccc3c2)N=C(c2ccc(O)cc2)c2cc(Cl)ccc21 (centres undefined)
EC50 [1]: 3.1 µM

IC50 (MCF7): > 40 µM
IC50 (SMMC-7721): > 40 µM
IC50 (SW480): > 40 µM
IC50 (HL-60): > 40 µM
IC50 (A549): > 40 µM
Structure (SMILES): CC[C@H]1O[C@@]2(C)[C@H](OC(C)=O)[C@@]1(C)O[C@@H](/C=C/C=C/C=C/c1cc(OC)cc(=O)o1)[C@@H]2O

IC50 (HCT-116 [3]): > 3 µM
Structure (SMILES): CO[C@H]1[C@H](O[C@@H]2C[C@@H]3C[C@H](O)[C@]4(O)C(=O)O[C@@H](C[C@H](O)[C@@H]5C[C@H](C)[C@H](/C=C\C=C\[C@H](C)C[C@H](C2)O3)O5)[C@H]4O)O[C@@H](C)[C@H](OCCCC=O)[C@H]1OCCCC=O
IC50 [2]: > 3 µM

inhibition (Bos taurus): > 40%
Structure (SMILES): COc1cc(/C=C/c2ccc(OCCCC[P+](c3ccccc3)(c3ccccc3)c3ccccc3)cc2)cc(OC)c1

IC50 (NCI-H292): 0.007 µM
Structure (SMILES): COC[C@@H](C[C@H]1O[C@@](O)([C@H](O)[C@@H]2C[C@H](OC)CCC/C=C(C)/C=C/[C@@H](O[C@@H]3O[C@@H](C)[C@H](OC)[C@@H](O)[C@@H]3O)[C@H](C)/C=C(C)/C=C(C)/C=C(\C)C(=O)O2)[C@H](C)[C@@H](O)[C@H]1C)O[C@H]1C[C@](C)(O)[C@@H](O[C@H]2C[C@@H](OC)[C@H](O)[C@@H](C)O2)[C@H](C)O1

inhibition (Bos taurus): > 40%
Structure (SMILES): CC(=O)Oc1cc(/C=C/c2ccc(OCCCC[P+](c3ccccc3)(c3ccccc3)c3ccccc3)cc2)cc(OC(C)=O)c1

Structure (SMILES): COC[C@@H](C[C@H]1O[C@@](O)([C@H](O)[C@@H]2C[C@H](OC)[C@@H](O)CC/C=C(C)/C=C/[C@@H](O[C@@H]3O[C@@H](C)[C@H](OC)[C@@H](O)[C@@H]3O)[C@H](C)/C=C(C)/C=C(C)/C=C(/C)C(=O)O2)[C@H](C)[C@@H](O)[C@H]1C)O[C@H]1C[C@](C)(O)[C@@H](O[C@H]2C[C@@H](OC)[C@H](O)[C@@H](C)O2)[C@H](C)O1
IC50 (NCI-H292): 0.15 µM

IC50 (NCI-H292): < 0.1 µM
Structure (SMILES): COC[C@@H](C[C@H]1O[C@@](O)(C[C@@H]2C[C@H](OC)CCC/C=C(C)/C=C/[C@@H](O[C@@H]3O[C@@H](C)[C@@H](OC)[C@@H](O)[C@@H]3O)[C@H](C)/C=C(C)/C=C(C)/C=C(\C)C(=O)O2)[C@H](C)[C@@H](O)[C@H]1C)O[C@H]1C[C@](C)(O)[C@@H](O[C@H]2C[C@@H](OC)[C@H](O)[C@@H](C)O2)[C@H](C)O1

Structure (SMILES): CN1C(=O)C(Cc2ccc3ccccc3c2)N=C(c2ccc3[nH]c(=O)[nH]c3c2)c2cc(Cl)ccc21 (centres undefined)
EC50 [1]: 2.1 µM

IC50 (SNU-398): 0.006 µM
Structure (SMILES): CC[C@](C)(NC(=O)[C@H](CC(C)C)NC(=O)[C@H](C)NC(=O)C(C)(C)NC(=O)[C@@H]1CCCCN1C(=O)C(C)(C)NC(=O)C(C)(C)NC(=O)CNC(=O)CCNC(=O)[C@H](CC(C)C)NC(=O)[C@](C)(CC)NC(=O)[C@](C)(CC)NC(=O)[C@@H]1CCCCN1C(=O)C(C)(C)NC(=O)[C@@H]1CCCCN1C(C)=O)C(=O)N[C@@H](CC(C)C)CN1CCC[N+]2=C1CCC2 (Ac-[Pip][Aib][Pip][Iva][Iva]L[βAla]G[Aib][Aib][Pip][Aib]AL[Iva]-X3)

IC50 (MCF7): > 40 µM
IC50 (SMMC-7721): > 40 µM
IC50 (SW480): > 40 µM
IC50 (HL-60): > 40 µM
IC50 (A549): > 40 µM
Structure (SMILES): CC[C@H]1O[C@@]2(C)[C@H](OC(C)=O)[C@@]1(C)O[C@@H](C(O)C(O)/C=C/C=C/c1oc(=O)cc(OC)c1C)[C@@H]2O (some centres undefined)

IC50 (MCF7): > 40 µM
IC50 (SMMC-7721): > 40 µM
IC50 (SW480): > 40 µM
IC50 (HL-60): > 40 µM
IC50 (A549): > 40 µM
Structure (SMILES): CC[C@H]1O[C@@]2(C)[C@H](OC(C)=O)[C@@]1(C)O[C@@H](/C=C/C=C/C=O)[C@@H]2O

Structure (SMILES): COc1cc(=O)oc(/C=C/C=C/C=C/[C@]2(C)O[C@]3(C)[C@@H](O)[C@](C)(O[C@@H]3C)[C@H]2O)c1C
IC50 (MDA-MB-231): > 5.43 µM

IC50 (HCT-116 [4]): 3.1 µM
IC50 (K562): 0.9 µM
Structure (SMILES): CCC(=O)[C@@H](C)[C@H](OC(C)=O)[C@@H](C)/C=C/C(=O)O[C@@H]1[C@H](C)[C@H](CC[C@H](/C=C/C=C/C[C@@H](C)[C@H](OC(C)=O)[C@@]2(C)OC=C(C)C2=O)CC)O[C@]2(CC[C@H](C)[C@H](C[C@@H](C)OC(C)=O)O2)[C@H]1C

Structure (SMILES): CC[C@](C)(NC(=O)[C@H](CC(C)C)NC(=O)[C@H](C)NC(=O)C(C)(C)NC(=O)[C@@H]1CCCCN1C(=O)C(C)(C)NC(=O)C(C)(C)NC(=O)CNC(=O)CCNC(=O)[C@H](CC(C)C)NC(=O)C(C)(C)NC(=O)[C@](C)(CC)NC(=O)[C@@H]1CCCCN1C(=O)C(C)(C)NC(=O)[C@@H]1CCCCN1C(C)=O)C(=O)N[C@@H](CC(C)C)C[N+]1=C2CCCN2CCC1 [EFRAPEPTIN G] (Ac-[Pip][Aib][Pip][Iva][Aib]L[βAla]G[Aib][Aib][Pip][Aib]AL[Iva]-X4)
IC50 (SNU-398): 0.009 µM

From ChEMBL document CHEMBL5230122, “Natural products and other inhibitors of F1FO ATP synthase” (Eur J Med Chem, 2020)
